From patent US20090047246A1, “NOVEL INHIBITORS OF HEPATITIS C VIRUS REPLICATION” (InterMune, Inc., priority 2007, published 2009) come the findings set out here.

The target of this assay is T1, HCV NS3 helicase (Hepatitis C virus genotype 1b, UniProt P26663).
T1 construct: full-length NS3 (1-631), purified at Array BioPharma
Nature of the assay: HCV Helicase Prompt FRET Assay (Example A). The format is biochemical. In short, it runs like this:
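Initial unwinding rates, monitored as FAM fluorescence gain (ex 485, em 535) over ~30 min at room temperature, gave IC50 via 4- or 5-parameter logistic fits. Reactions: 50 nM quenched duplex, 250 nM capture strand, 300 μM ATP, 5–6 nM NS3 1-631 after 5 min compound preincubation, MOPS pH 7.0 buffer, 2% DMSO.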

Setting [1] is: HCV NS3 helicase, tables do not say whether Example A or Example B assay, read-out: IC50 Activity.
[2] abbreviates: Table 37, compounds made using Scheme 55, read-out: IC50 Activity.
Setting [3] is: Table 35, compounds made using Scheme 53, read-out: IC50 Activity.
The mark [4] stands for this setting: Table 36, compounds made using Scheme 54, read-out: IC50 Activity.
Setting [5] is: Table 21, compounds made using Scheme 28, read-out: IC50 Activity.

pIC50: −log10 of the molar value. Where two headings read alike, the source gives them in different places.

T1 sequence (P26663 1027-1657): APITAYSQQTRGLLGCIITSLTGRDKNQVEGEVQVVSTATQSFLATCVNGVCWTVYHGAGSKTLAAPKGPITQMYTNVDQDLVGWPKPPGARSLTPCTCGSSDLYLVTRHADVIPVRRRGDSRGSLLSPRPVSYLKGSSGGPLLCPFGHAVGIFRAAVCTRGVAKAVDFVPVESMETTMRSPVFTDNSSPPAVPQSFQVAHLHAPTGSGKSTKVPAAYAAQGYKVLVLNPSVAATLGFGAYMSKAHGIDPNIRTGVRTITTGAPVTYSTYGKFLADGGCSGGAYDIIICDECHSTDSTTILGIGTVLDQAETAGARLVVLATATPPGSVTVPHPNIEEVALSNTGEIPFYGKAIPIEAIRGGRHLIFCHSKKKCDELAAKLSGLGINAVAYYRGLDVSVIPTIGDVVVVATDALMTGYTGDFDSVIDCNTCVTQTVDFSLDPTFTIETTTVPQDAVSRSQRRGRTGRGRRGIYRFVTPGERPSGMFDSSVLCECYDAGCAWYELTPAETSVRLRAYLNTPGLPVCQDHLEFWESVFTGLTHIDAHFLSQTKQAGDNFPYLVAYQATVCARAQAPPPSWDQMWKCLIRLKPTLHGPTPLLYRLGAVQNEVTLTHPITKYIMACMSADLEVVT

On to `N#Cc1ccc2c(CC(=O)O)cn(Cc3csc4ccc(Cl)cc34)c2c1` [Example 663], for which, under “Table 32, compounds made using Schemes 46-49, read-out: IC50 Activity”, the negative-log IC50 (pIC50) was 4.30 to 5.00.
As for `CC1CCN(C(=O)Cc2cn(Cc3cccc(OCc4ccccc4)c3)c3ccc(OCc4ccccc4)cc23)C1` (stereo not shown) [Example 191], the pIC50 under setting [1] was 4.30 to 5.00.
As for `O=C(O)Cc1cn(Cc2csc3ccc(Cl)cc23)c2cc(-c3ccncc3)ccc12` [Example 764], the pIC50 under setting [2] is 4.30 to 5.00.
With `O=C(O)Cc1cn(Cc2ccc(Oc3cccc(F)c3)cc2)c2ccccc12` [Example 518], the pIC50 under setting [1] was above 5.00.
With `O=C(Cc1cn(Cc2cccc(OCc3ccccc3)c2)c2ccc(Br)cc12)NCC1CC1` [Example 185], under setting [1], the pIC50 was 4.30 to 5.00.
On to `CCOC(=O)Cc1cn(Cc2csc3ccc(F)cc23)c2cc(-c3cc([N+](=O)[O-])cc([N+](=O)[O-])c3)ccc12` [Example 792], for which the pIC50 under setting [3] is below 4.30.
Turning to `O=C(O)Cc1c(Cc2csc3ccc(Cl)cc23)[nH]c2cc(OCc3ccccc3)ccc12` [Example 347], under setting [1], the pIC50 is above 5.00.
For `O=C(O)Cc1cn(Cc2csc3ccc(Cl)cc23)c2cc(-c3cccc(Cl)c3)ccc12` [Example 754], under setting [2], the pIC50 was below 4.30.
Regarding `COC(=O)/C=C/c1cn(-c2ccc([N+](=O)[O-])cc2C)c2ncc(OCc3ccccc3)cc12` [Example 328], the pIC50 under setting [1] is below 4.30.
With `O=C(Cc1cn(Cc2cccc(OCc3ccccc3)c2)c2ccc(OCc3ccccc3)cc12)NCC1CC1` [Example 190], the pIC50 under setting [1] is 4.30 to 5.00.
Same read-out and setting: the result for `O=C(O)Cc1cn(-c2ccc(-c3cccc(Cl)c3)cc2)c2ccccc12` [Example 145] reads above 5.00; that for `O=C(O)Cc1c(C(=O)c2cccc(-c3cc(Cl)cc(Cl)c3)c2)[nH]c2ccccc12` [Example 231], above 5.00; that for `C=COc1ccc2c(CC(=O)O)cn(Cc3csc4ccc(Cl)cc34)c2c1` [Example 352], above 5.00.
With `CCOC(=O)Cc1cn(Cc2c(-c3ccccc3)sc3ccccc23)c2cc(-c3cc([N+](=O)[O-])cc([N+](=O)[O-])c3)ccc12` [Example 711], the pIC50 under setting [4] is 4.30 to 5.00.
Regarding `O=C(O)Cc1c(C(=O)c2ccc(-c3cccc(Cl)c3Cl)cc2)[nH]c2ccccc12` [Example 274], the pIC50 under setting [1] was above 5.00.
On the same count and under the same terms, to `O=C(O)C(Cc1c[nH]c2ccc(Br)cc12)c1c[nH]c2ccc(Br)cc12` (stereo not shown) [Example 411] belongs 4.30 to 5.00; to `Clc1ccc2scc(Cn3c(-c4ccccc4)c(Cc4nnn[nH]4)c4ccccc43)c2c1` [Example 204], above 5.00; to `O=C(NS(=O)(=O)C1CC1)c1cn(Cc2csc3ccc(Cl)cc23)c2ccccc12` [Example 196], 4.30 to 5.00.
Turning to `CCOC(=O)Cc1cn(C(=O)c2csc3ccc(Cl)cc23)c2cc(-c3cc([N+](=O)[O-])cc([N+](=O)[O-])c3)ccc12` [Example 795], under “IC50 Activity, Table 38, compounds made using Scheme 56, Scheme 57 and Scheme 61”, the pIC50 is below 4.30.
For `Cc1sc2ccc(Cl)cc2c1Cn1cc(CC(=O)O)c2ccc(-c3ccccc3)cc21` [Example 770], the pIC50 under setting [2] was above 5.00.
Take `Nc1cc(N)cc(-c2ccc3c(CC(=O)O)cn(Cc4csc5cc(Cl)cc(Cl)c45)c3c2)c1` [Example 787]: the pIC50 under setting [4] is 4.30 to 5.00.
With `O=C(O)Cc1cn(Cc2ccc(Oc3cccc(F)c3F)cc2)c2ccccc12` [Example 584], under setting [1], the pIC50 was above 5.00.
As to `COc1cc2c(cc1OCc1ccccc1)c(CC(=O)O)cn2-c1ccc([N+](=O)[O-])cc1C` [Example 342], the pIC50 under setting [1] is 4.30 to 5.00.
`Nc1cc(N)cc(-c2ccc3c(CC(=O)O)cn(Cc4cccc5sc(O)nc45)c3c2)c1` [Example 708]: the pIC50 under setting [3] is 4.30 to 5.00.
Consider `Cc1cc([N+](=O)[O-])ccc1CC1CN(c2ccc([N+](=O)[O-])cc2C)c2ccc(Br)cc21` (stereo not shown) [Example 405], for which the pIC50 under setting [1] is 4.30 to 5.00.
Turning to `Cc1cc([N+](=O)[O-])ccc1-n1cc(C(C)C(=O)O)c2cc(Br)ccc21` (stereo not shown) [Example 391], the pIC50 under setting [1] was 4.30 to 5.00.
On the same count and under the same terms, the result for `CC(C)c1ccc(Cn2c(C(=O)N3CCNCC3)c(CC(=O)O)c3cc(Br)ccc32)cc1` [Example 430] reads below 4.30.
Still for that read-out and setting: to `CCOC(=O)C(F)(F)c1cn(-c2ccc([N+](=O)[O-])cc2C)c2ccc(Br)cc12` [Example 383] belongs 4.30 to 5.00; to `CC(C)c1ccc(Cn2c(C(=O)NCc3ccc(S(N)(=O)=O)cc3)c(CC(=O)O)c3ccccc32)cc1` [Example 442], 4.30 to 5.00; to `COC(=O)C(Cc1ccccc1)c1cn(Cc2ccc(C(C)C)cc2)c2ccc(Br)cc12` (stereo not shown) [Example 409], below 4.30.
The same measure, in the same setting: to `CCOC(=O)Cc1cn(Cc2ccc(Oc3cc(C(F)(F)F)cc(C(F)(F)F)c3)cc2)c2ccccc12` [Example 517] belongs 4.30 to 5.00.
With `COC(=O)C(c1ccc([N+](=O)[O-])cc1C)c1cn(-c2ccc([N+](=O)[O-])cc2C)c2ccc(Br)cc12` (stereo not shown) [Example 396], the pIC50 under setting [1] was above 5.00.
Still for that read-out and setting: the result for `O=C(O)Cc1c(Cc2csc3ccc(Cl)cc23)n(CC2CC2)c2cc(OCc3ccccc3)ccc12` [Example 369] reads above 5.00; that for `CC(C)N(c1cccc(Cn2cc(CC(=O)O)c3ccccc32)c1)c1ccccc1C(F)(F)F` [Example 555], above 5.00; that for `O=C(O)Cc1cn(Cc2ccc(Oc3cccc(Cl)c3Cl)cc2)c2ccccc12` [Example 588], above 5.00.
Same read-out and setting: to `CS(=O)(=O)c1ccc(-n2cc(CP(=O)(O)O)c3cc(Br)ccc32)cc1` [Example 314] belongs 4.30 to 5.00; to `CC(C)c1cccc(-c2cccc(C(=O)c3oc4ccccc4c3CC(=O)O)c2)c1` [Example 245], above 5.00; to `Cc1cc([N+](=O)[O-])ccc1-n1cc(CC(=O)O)c2cccnc21` [Example 319], below 4.30.
On to `NC(=O)c1ccccc1-c1ccc2c(CC(=O)O)cn(Cc3csc4ccc(Cl)cc34)c2c1` [Example 762], for which the pIC50 under setting [2] was below 4.30.
Regarding `O=C(O)Cc1cn(Cc2csc3ccc(Cl)cc23)c2cc(N3CCCC(O)C3)ccc12` (stereo not shown) [Example 746], the pIC50 under setting [1] was 4.30 to 5.00.
Same read-out and setting: the result for `CC(C)c1ccc(Cn2c(C(=O)NCc3ccc([N+](=O)[O-])cc3)c(CC(=O)O)c3ccccc32)cc1` [Example 447] reads above 5.00; that for `O=C(O)Cc1cn(Cc2cccc(Oc3cccc(C(F)(F)F)c3)c2)c2ccccc12` [Example 482], above 5.00; that for `Cc1cc([N+](=O)[O-])ccc1-n1cc(CCC(=O)O)c2cc(Br)ccc21` [Example 386], 4.30 to 5.00.
As for `O=C(O)Cc1cn(Cc2cccc(-c3cccc(Cl)c3)c2)c2ccc(OCc3ccccc3)cc12` [Example 129], the pIC50 under setting [1] was above 5.00.
Same read-out and setting: to `Cc1cc([N+](=O)[O-])ccc1N1CC(CC(=O)O)c2cc(Br)ccc21` (stereo not shown) [Example 395] belongs 4.30 to 5.00.
`COc1ccccc1-c1ccc2c(CC(=O)O)cn(Cc3csc4ccc(Cl)cc34)c2c1` [Example 747]: the pIC50 under setting [2] is below 4.30.
With `Nc1ccc(CO)c(-c2ccc3c(CC(=O)O)cn(Cc4csc5ccc(Cl)cc45)c3c2)n1` [Example 615], the pIC50 (Table 26, compounds made using Scheme 33, read-out: IC50 Activity) was 4.30 to 5.00.
`Cc1ccc(-c2ccc(C(=O)c3[nH]c4ccccc4c3CC(=O)O)cc2)cc1C` [Example 262]: the pIC50 under setting [1] was 4.30 to 5.00.
On the same count and under the same terms, the result for `CN(Cc1cccc(Cl)c1)c1ccc(-n2cc(CC(=O)O)c3ccccc32)cc1` [Example 179] reads above 5.00.
Same read-out and setting: the result for `CN(c1ccc(Cl)cc1)c1cccc(Cn2cc(CC(=O)O)c3ccccc32)c1` [Example 525] reads above 5.00; that for `N#Cc1ccnc(-n2cc(CP(=O)(O)O)c3cc(Br)ccc32)c1` [Example 316], 4.30 to 5.00.
For the molecule `Nc1cc(-c2ccc3c(CC(=O)NO)cn(Cc4csc5ccc(Cl)cc45)c3c2)cc([N+](=O)[O-])c1` [Example 691], the pIC50 (Table 34, compounds made using Schemes 51-52, read-out: IC50 Activity) was 4.30 to 5.00.
As to `O=C(O)Cc1cn(-c2ccc(N(Cc3ccccc3)Cc3ccccc3)cc2)c2ccccc12` [Example 169], the pIC50 under setting [1] is above 5.00.
Still for that read-out and setting: the result for `COc1cccc(-c2ccc(-n3cc(CC(=O)O)c4ccccc43)cc2)c1` [Example 144] reads above 5.00.
Same read-out and setting: the result for `Clc1ccc2scc(Cn3cc(Cc4nnn[nH]4)c4ccccc43)c2c1` [Example 202] reads above 5.00; that for `Cc1ccc(-c2ccc(Cc3[nH]c4ccccc4c3CC(=O)O)cc2)cc1Cl` [Example 291], above 5.00.
On to `CN(c1ccc(Cn2cc(CC(=O)O)c3ccccc32)cc1)c1ccc(C(F)(F)F)cc1C(F)(F)F` [Example 580], for which the pIC50 under setting [5] was above 5.00.
`O=C(O)Cc1cn(Cc2ccc(Oc3ccc(Cl)cc3)cc2)c2ccccc12` [Example 498]: the pIC50 under setting [1] was above 5.00.
As to `Cc1ccc(-c2ccc(C(=O)c3[nH]c4ccccc4c3CC(=O)O)cc2)cc1Cl` [Example 267], under setting [1], the pIC50 is above 5.00.
On the same count and under the same terms, to `O=C(O)Cc1cn(Cc2cccc(Oc3ccccc3)c2)c2ccc(Br)cc12` [Example 105] belongs above 5.00.
Regarding `COc1ccc(N(C)c2ccc(Cn3cc(CC(=O)O)c4ccccc43)cc2)cc1` [Example 564], the pIC50 under setting [5] was above 5.00.
The same measure, in the same setting: to `CN(c1ccc(Cn2cc(CC(=O)O)c3ccccc32)cc1)c1c(F)cccc1F` [Example 571] belongs 4.30 to 5.00.
`Cc1cc(NCc2ccccc2)ccc1-n1cc(CC(=O)O)c2ccccc21` [Example 173]: under setting [1], the pIC50 is 4.30 to 5.00.
Still for that read-out and setting: to `O=C(O)c1cccc2[nH]c3ccccc3c12` [Example 467] belongs below 4.30; to `O=[N+]([O-])c1ccc(-n2cc(CP(=O)(O)O)c3cc(Br)ccc32)nc1` [Example 317], above 5.00; to `CCN(Cc1ccccc1)c1ccc(-n2cc(CC(=O)O)c3ccccc32)cc1` [Example 166], above 5.00.
The same measure, in the same setting: to `CCCNC(=O)Cc1cn(Cc2cccc(OCc3ccccc3)c2)c2ccc(Br)cc12` [Example 183] belongs 4.30 to 5.00.

By pIC50 is commonly meant the negative decadic logarithm of the IC50, by convention in mol/L.
